Experimental data reported in patent US20240158446A1, “CYCLIC COMPOUND HAVING SELECTIVE INHIBITORY ACTION ON KRAS OVER HRAS AND NRAS” (CHUGAI SEIYAKU KABUSHIKI KAISHA, priority 2021, published 2024).
Read-outs that look alike come from different tables or passages of the source.

Legend:
[1] = target: GDP-bound KRAS wild-type protein (Homo sapiens, UniProt P01116); experiment: Binding to KRAS by surface plasmon resonance (SPR), Single Cycle Kinetics; conditions: GDP-bound KRAS wild-type protein, read-out: KRAS KD
[2] = target: GDP-bound NRAS wild-type protein (Homo sapiens, UniProt P01111); experiment: Binding to NRAS by surface plasmon resonance (SPR), Single Cycle Kinetics; conditions: for NRAS/KRAS (ratio of KD value with respect to GDP-bound NRAS wild-type protein to KD value with respect to KRAS): SPR KD ratio NRAS/KRAS, class symbols; for NRAS/KRAS (ratio of KD value with respect to NRAS to KD value with respect to KRAS) / NRAS/KRAS (ratio of KD value for NRAS to KD value for KRAS): SPR, GDP-bound NRAS wild-type protein vs GDP-bound KRAS wild-type protein
[3] = target: GDP-bound HRAS wild-type protein (Homo sapiens, UniProt P01112); experiment: Binding to HRAS by surface plasmon resonance (SPR), Single Cycle Kinetics; conditions: for HRAS/KRAS (ratio of KD value with respect to GDP-bound HRAS wild-type protein to KD value with respect to KRAS): SPR KD ratio HRAS/KRAS, class symbols; for HRAS/KRAS (ratio of KD value with respect to HRAS to KD value with respect to KRAS) / HRAS/KRAS (ratio of KD value for HRAS to KD value for KRAS): SPR, GDP-bound HRAS wild-type protein vs GDP-bound KRAS wild-type protein
[4] = SPR Single Cycle Kinetics, 1:1 binding model

GDP-bound NRAS wild-type protein, sequence (P01111 whole entry): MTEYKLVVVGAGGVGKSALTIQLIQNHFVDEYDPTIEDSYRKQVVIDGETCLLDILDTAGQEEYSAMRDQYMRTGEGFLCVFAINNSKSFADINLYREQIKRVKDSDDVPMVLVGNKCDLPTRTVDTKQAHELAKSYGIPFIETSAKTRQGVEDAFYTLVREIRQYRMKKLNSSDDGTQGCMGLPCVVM
GDP-bound HRAS wild-type protein, sequence (P01112 whole entry): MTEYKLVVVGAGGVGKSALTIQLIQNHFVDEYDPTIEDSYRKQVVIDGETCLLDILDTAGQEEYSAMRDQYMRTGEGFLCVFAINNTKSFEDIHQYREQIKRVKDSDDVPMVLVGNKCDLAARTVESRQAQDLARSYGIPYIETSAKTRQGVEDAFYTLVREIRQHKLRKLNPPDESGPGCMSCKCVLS
GDP-bound KRAS wild-type protein, sequence (P01116 whole entry): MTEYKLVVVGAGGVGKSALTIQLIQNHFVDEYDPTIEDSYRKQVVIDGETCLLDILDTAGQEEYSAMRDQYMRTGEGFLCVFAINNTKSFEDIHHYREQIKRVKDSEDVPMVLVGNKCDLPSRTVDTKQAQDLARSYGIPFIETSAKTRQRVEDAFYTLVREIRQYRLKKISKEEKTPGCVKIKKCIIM

Structure (SMILES)	Kd [1, 4] [nM]	NRAS/KRAS (ratio of KD value with respect to GDP-bound NRAS wild-type protein to KD value with respect to KRAS) [2]	HRAS/KRAS (ratio of KD value with respect to GDP-bound HRAS wild-type protein to KD value with respect to KRAS) [3]	NRAS/KRAS (ratio of KD value with respect to NRAS to KD value with respect to KRAS) [2]	HRAS/KRAS (ratio of KD value with respect to HRAS to KD value with respect to KRAS) [3]	Kd ([1]; SPR, Single Cycle Kinetics) [nM]	NRAS/KRAS (ratio of KD value for NRAS to KD value for KRAS) [2]	HRAS/KRAS (ratio of KD value for HRAS to KD value for KRAS) [3]
CCO[C@@H]1C[C@H]2C(=O)NC3(CCC3)C(=O)N(C)[C@@H](C3CCCC3)C(=O)N(C)[C@H](C(=O)N(C)CC)CC(=O)N(C)[C@@H](CC3CCC3)C(=O)N[C@@H]([C@@H](C)CC)C(=O)N(C)CC(=O)N(C)[C@H]3C/C=C\CCN(C3=O)[C@@H](Cc3ccc(C(F)(F)F)cc3)C(=O)N(C)CC(=O)N[C@@H](CCc3ccc(C(F)(F)F)c(Cl)c3)C(=O)N2C1 [PP2826]	0.14	A (a compound having 10 or more and less than 20 is denoted as A)	A (a compound having 10 or more and less than 20 is denoted as A)					
CCO[C@@H]1C[C@H]2C(=O)NC3(CCC3)C(=O)N(C)[C@@H](C3CCCC3)C(=O)N(C)[C@H](C(=O)N3CCOCC3)CC(=O)N(C)[C@@H](CC)C(=O)N[C@@H]([C@@H](C)CC)C(=O)N(C)CC(=O)N(C)[C@H]3CCCCCN(C3=O)[C@@H](Cc3ccc(C(F)(F)F)cc3)C(=O)N(C)CC(=O)N[C@@H](CCc3cc(F)c(C(F)(F)F)c(F)c3)C(=O)N2C1 [PP0678]	0.47			B (a compound having 3 or more and less than 10 is denoted as B)	B (a compound having 3 or more and less than 10 is denoted as B)			
CCO[C@@H]1C[C@H]2C(=O)NC3(CCC3)C(=O)N(C)[C@@H](C3CCCC3)C(=O)N(C)[C@H](C(=O)N3CCOCC3)CC(=O)N(C)[C@@H](COC)C(=O)N[C@@H]([C@@H](C)CC)C(=O)N(C)CC(=O)N(C)[C@H]3CCCCN(C3=O)[C@@H](Cc3ccc(C(F)(F)F)cc3)C(=O)N(C)CC(=O)N[C@@H](CCc3cc(F)c(C(F)(F)F)c(F)c3)C(=O)N2C1 [PP0719]	0.02			C (A compound having a KD ratio of 0.1 or more and less than 3 is denoted as C)	B (a compound having 3 or more and less than 10 is denoted as B)			
CCO[C@@H]1C[C@H]2C(=O)NC3(CC(C)(C)C3)C(=O)N(C)[C@@H](CC3CCC3)C(=O)N(C)[C@H](C(=O)N(C)C)CC(=O)N(C)[C@@H](COC)C(=O)N[C@@H]([C@@H](C)CC)C(=O)N(C3CC3)CC(=O)N(C)[C@H]3C/C=C\CCN(C3=O)[C@@H](Cc3ccc(C(F)(F)F)cc3)C(=O)N(C)CC(=O)N[C@@H](CCc3ccc(Cl)c(Cl)c3)C(=O)N2C1 [PP2821]	1.8	A (a compound having 10 or more and less than 20 is denoted as A)	A (a compound having 10 or more and less than 20 is denoted as A)					
CCC[C@H]1C(=O)N[C@@H]([C@@H](C)CC)C(=O)N(C2CC2)CC(=O)N(C)[C@H]2C/C=C\CCN(C2=O)[C@@H](Cc2ccc(C)cc2)C(=O)N(C)CC(=O)N[C@@H](CCc2cc(F)c(C(F)(F)F)c(F)c2)C(=O)N2C[C@H](OCC)C[C@H]2C(=O)NC2(CC(C)(C)C2)C(=O)N(C)[C@@H](C2CCCC2)C(=O)N(C)[C@H](C(=O)N(C)C)CC(=O)N1C [PP2093, (2S,8S,12R,14S,20S,23S,27S,30S,36S,38Z)-20-cyclopentyl-32-cyclopropyl-8-[2-[3,5-difluoro-4-(trifluoromethyl)phenyl]ethyl]-12-ethoxy-N,N,3′,3′,4,19,22,26,35-nonamethyl-30-[(1S)-1-methylpropyl]-3,6,9,15,18,21,25,28,31,34,42-undecaoxo-27-propyl-2-(p-tolylmethyl)spiro[1,4,7,10,16,19,22,26,29,32,35-undecazatricyclo[34.5.1.0^10,14]dotetracont-38-ene-17,1′-cyclobutane]-23-carboxamide]						0.33	A (a compound having 10 or more and less than 20 is denoted as A)	A (a compound having 10 or more and less than 20 is denoted as A)
CCO[C@@H]1C[C@H]2C(=O)NC3(CCCC3)C(=O)N(C)[C@@H](C3CCCC3)C(=O)N(C)[C@H](C(=O)N3CCOCC3)CC(=O)N(C)[C@@H](CC(C)C)C(=O)N[C@@H]([C@@H](C)CC)C(=O)N(C)CC(=O)N(C)[C@H]3CCCCN(C3=O)[C@@H](Cc3ccc(C(F)(F)F)cc3)C(=O)N(C)CC(=O)N[C@@H](CCc3cc(F)c(C(F)(F)F)c(F)c3)C(=O)N2C1 [PP0554]	0.036			B (a compound having 3 or more and less than 10 is denoted as B)	B (a compound having 3 or more and less than 10 is denoted as B)			
CCC[C@H]1C(=O)N[C@@H](C2CCOCC2)C(=O)N(C)CC(=O)N(C)[C@H]2C/C=C\CCN(C2=O)[C@@H](Cc2ccc(C(F)(F)F)cc2)C(=O)N(C)CC(=O)N[C@@H](CCc2ccc(C(F)(F)F)c(Cl)c2)C(=O)N2C[C@H](OCC)C[C@H]2C(=O)NC2(CC(C)(C)C2)C(=O)N(C)[C@@H](C2CCCC2)C(=O)N(C)[C@H](C(=O)N(C)C)CC(=O)N1C [PP3000]						1.3	AA (a compound having 20 or more is denoted as AA)	A (a compound having 10 or more and less than 20 is denoted as A)
